Measurements as given in patent US20100028447A1, “Intranasal, Buccal, And Sublingual Administration Of Metanicotine Analogs” (TARGACEPT, INC., priority 2007, published 2010).
Entries after “also recorded” stand apart in the source; their conditions may differ.

Assay: In situ brain perfusion, single time-point method
Details: for Kin relative to values reported for drugs that do not substantially penetrate the CNS: 50 μM
Experimental: Animals used in this study were Sprague-Dawley rats (approximate weight 250-300 grams), obtained from Hilltop Lab Animals, Scottdale, Pa. Upon arrival, the rats were assigned randomly to treatment groups and acclimated for at least 24 hours. The animals were housed two per cage and identified by cage labels. A single room was used for this study. The animals were supplied with water and a commercial rodent diet ad libitum. On the day of the experiment, each rat was anesthetized intraperitoneally with Ketamine HCl/Xylazine HCl solution prior to being implanted with a cannula into the left carotid artery. Branch arteries were […], and the cardiac supply was cut off prior to brain perfusion.
Perfusion was performed using the single time-point method. […] Following 30 seconds of perfusion, the pump was stopped, and the brain was removed from the skull immediately. The brain was cut longitudinally in […]. Each left cerebral hemisphere was placed into a chilled tube, frozen on dry ice, and stored frozen at −60° C. to −80° C. until analyzed. […] Test articles were perfused at concentrations of 50 μM. The outline of the experimental treatments and the target and measured concentrations of the test articles and control compounds in the perfusate are presented in Table 3.
The left brain hemisphere from each rat was thawed and weighed. Methanol (20% aqueous) was added to each left brain hemisphere at approximately 4 mL per 1 g of brain tissue, and the mixture was homogenized using sonication with a VirSonic Ultrasonic Cell Disruptor 100 (VirTis). The test articles and two reference compounds were analyzed in the resulting homogenate by using LC/MS/MS.
The unidirectional brain transfer constants Kin (mL/g/min) were determined for the test articles and the high permeability reference, antipyrine, using the following equation for the single-point perfusion assay: […]
where: Cbr/Cpf is the apparent brain distribution volume (mL/g of brain tissue); Cbr is the concentration of drug in the brain tissue (pmol of drug per g of brain tissue); Cpf is the drug concentration in the perfusion fluid (pmol/mL of perfusate); and t is the net perfusion time (minutes).
Graphic representation and statistical analyses of the data were performed using GraphPad Prism software.

[1] = Sprague-Dawley, rat, in vivo, 30 s
[2] = Table 4 Treatment 2: Compound B perfused with references + MAO inhibitor Pargyline, Rat 1
[3] = Table 4 Treatment 2: Compound B perfused with references + MAO inhibitor Pargyline, Rat 2
[4] = Table 4 Treatment 2: Compound B perfused with references + MAO inhibitor Pargyline, Rat 3
[5] = Table 5 Treatment 1: Compound A perfused with references, Average ± STD
[6] = Table 5 Treatment 1: Compound A perfused with references, Rat 1
[7] = Table 5 Treatment 1: Compound A perfused with references, Rat 2
[8] = Table 5 Treatment 1: Compound A perfused with references, Rat 3
[9] = Table 5 Treatment 2: Compound A perfused with references + CYP2D6 inhibitor Quinidine, Average ± STD
[10] = Table 5 Treatment 2: Compound A perfused with references + CYP2D6 inhibitor Quinidine, Rat 1
[11] = Table 5 Treatment 2: Compound A perfused with references + CYP2D6 inhibitor Quinidine, Rat 2
[12] = Table 5 Treatment 2: Compound A perfused with references + CYP2D6 inhibitor Quinidine, Rat 3

CNCC/C=C/c1cccnc1 [Compound B, N-methyl-(4-pyridin-3-yl-but-3-enyl)-amine]
Brain concentration and Kin in the presence of the MAO inhibitor Pargyline compared to alone [1]: ^Significantly higher than the corresponding values of Compound B in the absence of enzymatic inhibitor (p < 0.05, two-tailed t-test).
Kin relative to values reported for drugs that do not substantially penetrate the CNS [1]: more than 100 times
Brain Concentration (corrected for drug retained in vascular volume) (Table 4 Treatment 1: Compound B perfused with references, Average ± STD): 2681.0 ± 513.0 pmol/g
Brain Concentration (corrected for drug retained in vascular volume) (Table 4 Treatment 1: Compound B perfused with references, Rat 1): 2725.9 pmol/g
Brain Concentration (corrected for drug retained in vascular volume) (Table 4 Treatment 1: Compound B perfused with references, Rat 2): 3170.1 pmol/g
Brain Concentration (corrected for drug retained in vascular volume) (Table 4 Treatment 1: Compound B perfused with references, Rat 3): 2147.0 pmol/g
Brain Concentration (corrected for drug retained in vascular volume) (Table 4 Treatment 2: Compound B perfused with references + MAO inhibitor Pargyline, Average ± STD): 3652.8^ ± 293.1 pmol/g
Brain Concentration (corrected for drug retained in vascular volume) [2]: 3358.2 pmol/g
Kin [2]: 0.110 mL/g/min
Brain Concentration (corrected for drug retained in vascular volume) [3]: 3655.8 pmol/g
Kin [3]: 0.120 mL/g/min
Brain Concentration (corrected for drug retained in vascular volume) [4]: 3944.4 pmol/g
Kin [4]: 0.129 mL/g/min
Brain concentration and Kin in the presence of the MAO inhibitor Pargyline compared to alone (rat, in vivo): significantly increased
Potential to penetrate the brain (rat, in vivo): good potential

CN[C@@H](C)C/C=C/c1cncc(OC)c1 [Compound A, (2S)-(4E)-N-methyl-5-(3-(5-methoxypyridin)yl)-4-penten-2-amine]
Brain penetration (brain concentration, Kin) in the absence or presence of the CYP2D6 inhibitor Quinidine (N=3): no significant difference; also recorded: did not affect
Kin relative to values reported for drugs that do not substantially penetrate the CNS [1]: more than 100 times
Brain Concentration (corrected for drug retained in vascular volume) [5]: 5504.5 ± 961.7 pmol/g
Kin [5]: 0.198+ ± 0.035 mL/g/min
Brain Concentration (corrected for drug retained in vascular volume) [6]: 6558.8 pmol/g
Kin [6]: 0.236 mL/g/min
Brain Concentration (corrected for drug retained in vascular volume) [7]: 5279.1 pmol/g
Kin [7]: 0.190 mL/g/min
Brain Concentration (corrected for drug retained in vascular volume) [8]: 4675.5 pmol/g
Kin [8]: 0.168 mL/g/min
Brain Concentration (corrected for drug retained in vascular volume) [9]: 5803.0 ± 278.8 pmol/g
Kin [9]: 0.212 ± 0.010 mL/g/min
Brain Concentration (corrected for drug retained in vascular volume) [10]: 5574.4 pmol/g
Kin [10]: 0.203 mL/g/min
Brain Concentration (corrected for drug retained in vascular volume) [11]: 6113.5 pmol/g
Kin [11]: 0.223 mL/g/min
Brain Concentration (corrected for drug retained in vascular volume) [12]: 5721.1 pmol/g
Kin [12]: 0.209 mL/g/min
Average Kin of Compound A (absence of Quinidine) compared with Compound B (absence of Pargyline) (rat, in vivo): higher
Potential to penetrate the brain (rat, in vivo): good potential
